# Reference: patent publication US20220296566A1, “COMBINATION PRODUCT CONTAINING LIMONOID COMPOUND AND ALPHA-GLUCOSIDASE INHIBITOR” (ZHEJIANG YANGSHENGTANG INSTITUTE OF NATURAL MEDICATION CO., …, priority 2019, published 2022)
# Legend:
# Type in all cases: in vivo
# [1] = system: db/db mice; experiment: Blood glucose in mouse type II diabetes model, db/db mice (Example 4); details: single agent 0.2 g/kg per day by gavage, two weeks, 1 h after last administration, mean ± SD
# Description: (§1) Effects of limonoid compound, acarbose or combination thereof on blood glucose and insulin in mouse type II diabetes model
# (§2) In the present embodiment, the limonoid compound was selected from nomilin, deacetylnomilin, nomilin acid, deacetylnomilin acid glycoside, and acarbose single administration group, nomilin single administration group, deacetylnomilin single administration group, nomilin acid single administered group, deacetylnomilin acid glycoside single administration group, and respective combination thereof with acarbose administration groups were set.
# Conditions for experimental feeding: as type II diabetes model mice, 6-week-old SPF-grade db/db mice were purchased from the Nanjing Model Biology Institute, and subjected to experimental feeding after 7 days of preliminary feeding. […]
# Gavage doses: nomilin at a dose of 0.2 g/kg was gavaged per day for the nomilin group, deacetylnomilin at a dose of 0.2 g/kg was gavaged per day for the deacetylnomilin group, nomilin acid at a dose of 0.2 g/kg was gavaged per day for the nomilin acid group, deacetylnomilin acid glycoside at a dose of 0.2 g/kg was gavaged per day for the deacetylnomilin acid glycoside group, acarbose at a dose of 0.2 g/kg was gavaged per day for the acarbose group, nomilin at a dose of 0.1 g/kg and acarbose at a dose of 0.1 g/kg were simultaneously gavaged per day for the nomilin combination group, nomilin acid at a dose of 0.1 g/kg and acarbose at a dose of 0.1 g/kg were simultaneously gavaged per day for the nomilin acid combination group, deacetylnomilin at a dose of 0.1 g/kg and acarbose at a dose of 0.1 g/kg were simultaneously gavaged per day for the deacetylnomilin combination group, deacetylnomilin acid glycoside at a dose of 0.1 g/kg and acarbose at a dose of 0.1 g/kg were simultaneously gavaged per day for the deacetylnomilin acid glycoside combination group, the gavage volume was 10 mL/kg, and the normal group and the model group were administrated with 10 mL/kg of distilled water. […] The data were expressed as mean and standard deviation. […]
# [2] = system: STZ mice; experiment: Blood glucose in STZ mouse pancreatic islet β-cell injury model (Example 1); details: STZ ICR mice; single agent 0.02 g/kg per day by gavage, two weeks; 1 h after last administration; mean ± SD
# Description: Effects of limonoid compound, acarbose or combination thereof on blood glucose in mouse pancreatic islet (3-cell injury model […]
# Gavage doses: the gavage dose was 0.02 g/kg per day for the limonin group, the gavage dose was 0.02 g/kg per day for the isolimonic acid group, the gavage dose was 0.02 g/kg per day for the limonin glycoside group, the gavage dose was 0.02 g/kg per day for the isolimonic acid glycoside group, the gavage dose of acarbose was 0.02 g/kg per day for the acarbose group, limonin at a dose of 0.01 g/kg and acarbose at a dose of 0.01 g/kg were simultaneously gavaged per day for the limonin/acarbose combination group, isolimonic acid at a dose of 0.01 g/kg and acarbose at a dose of 0.01 g/kg were simultaneously gavaged per day for the isolimonic acid/acarbose combination group, limonin glycoside at a dose of 0.01 g/kg and acarbose at a dose of 0.01 g/kg were simultaneously gavaged per day for the limonin glycoside/acarbose combination group, isolimonic acid glycoside at a dose of 0.01 g/kg and acarbose at a dose of 0.01 g/kg were simultaneously gavaged per day for the isolimonic acid glycoside/acarbose combination group, the gavage volume was 10 mL/kg, and the normal group and the model group were administrated with 10 mL/kg of distilled water. […] The data were expressed as mean and standard deviation. […]
# [3] = system: db/db mice; experiment: Serum insulin by Elisa in db/db mice (Example 4); details: single agent 0.2 g/kg per day by gavage, two weeks, mean ± SD
# Description: as §1, §2
# Conditions for experimental feeding: as type II diabetes model mice, 6-week-old SPF-grade db/db mice were purchased from the Nanjing Model Biology Institute, and subjected to experimental feeding after 7 days of preliminary feeding. It should be noted that the conditions for raising the mice were as follows: the temperature was 23±1° C., the humidity was 55±10%, the lights were turned on between 7 am and 7 pm (the lights were turned off at other time), and the mice were allowed to freely take in water and feed. The experimental feed was mouse growth-stable feed (GB M2118), and the daily feeding and management of the animals were under the responsibility of the animal security department, which provided the animals with sufficient diet and fresh drinking water daily. […]
structure (smiles),measurement,setting,value
"C[C@H]1O[C@H](O[C@H]2[C@H](O)[C@@H](O)[C@@H](O[C@H]3[C@H](O)[C@@H](O)C(O)O[C@@H]3CO)O[C@@H]2CO)[C@H](O)[C@@H](O)[C@@H]1N[C@H]1C=C(CO)[C@@H](O)[C@H](O)[C@H]1O (stereo partly drawn) [Acarbose, acarbose]",Blood glucose value,[1],13.6 ± 2.9 mmol/L
same,Blood glucose value,[2],22.1 ± 3.4 mmol/L
same,Insulin,[3],8.45 ± 2.21 pg/mL
